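The compound was tested at five concentrations on cells cultured in 96-well plates, with a 48-hour exposure period. Abbreviation: GI50, concentration required for 50% inhibition of growth. TGI: total growth inhibition.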
What was measured:
Assay in all cases: inhibition of tumour cell growth, NCI panel, 48 h
[1] = system: 786-0 renal
[2] = system: CAKI-1 renal
[3] = system: KM12 colon
[4] = system: M14 melanoma
[5] = system: OVCAR-4 ovarian
[6] = system: OVCAR-5 ovarian
[7] = system: SF-268 CNS
[8] = system: SW-620 colon
[9] = system: TK-10 renal
[10] = system: UACC-257 melanoma

Structure (SMILES)	TGI [1] [µM]	TGI [2] [µM]	TGI [3] [µM]	TGI [4] [µM]	TGI [5] [µM]	TGI [6] [µM]	TGI [7] [µM]	TGI [8] [µM]	TGI [9] [µM]	TGI [10] [µM]	GI50 [1] [µM]	GI50 [2] [µM]	GI50 [3] [µM]	GI50 [4] [µM]	GI50 [5] [µM]	GI50 [6] [µM]	GI50 [7] [µM]	GI50 [8] [µM]	GI50 [9] [µM]	GI50 [10] [µM]
Clc1ccc(CN2COc3c(cc(Cl)c4cccnc34)C2)cc1	9.41	12.6	6.32	3.82	8.26	8.11	12.7	11	13.4	9.13	–	–	–	–	–	–	–	–	–	–
CCO[C@@H]1C2C=CC(C2)[C@H]1[N+](=O)[O-] (stereo not given in full)	> 100	> 100	> 100	> 100	> 100	> 100	> 100	> 100	> 100	> 100	–	–	–	–	–	–	–	–	–	–
Cc1ncc([N+](=O)[O-])n1CCNC(=O)CCCn1cnc([N+](=O)[O-])n1	> 100	> 100	> 100	> 100	> 100	> 100	> 100	> 100	> 69.5	> 100	–	–	–	–	–	–	–	–	–	–
Cc1cccc(C)c1NC(=O)CCCC(=O)C1CCC/C1=N\NC(=O)C(=O)NN (stereo not given)	> 100	> 100	> 100	> 100	> 100	> 100	> 100	> 100	> 100	> 100	–	–	–	–	–	–	–	–	–	–
COC(=O)C(=O)C(C(=O)C=C(C)C)C(=O)C(=O)Nc1cccc(C(C)=O)c1 (stereo not given)	> 100	> 100	> 100	> 100	> 100	> 100	> 100	> 100	> 100	> 100	–	–	–	–	–	–	–	–	–	–
Cc1c(C)c2ccc(OC/C=C3\CCC(=O)O3)cc2oc1=O	20.8	30.6	31.3	24.7	28.9	31.1	46.1	40	23	31.3	5.35	15.3	13.8	11.4	12.6	16.5	17	18	9.79	15.9
O=c1oc2ccc(Cl)cc2c(=O)n1-c1ccc(I)cc1F	4.13	1.02	5.55	1.4	> 87.2	> 100	4.11	7.58	11.4	1.61	1.36	0.172	2.21	0.165	0.225	3.58	0.26	0.384	0.605	0.137
COc1ccc(COCC(Cn2ccnc2)OCc2ccc(C(=O)O)cc2)cc1 (stereo not given)	> 100	> 100	> 100	> 100	> 100	> 100	> 100	> 100	> 100	> 100	–	–	–	–	–	–	–	–	–	–
O=c1[nH]cnc2c(C3OC(CO)C(O)C3O)scc12 (stereo not given)	> 100	> 100	> 100	> 100	> 100	> 100	> 100	> 100	> 100	> 100	> 100	77.9	> 100	56.5	> 100	> 100	> 100	99.9	11.6	> 100
CC(=O)OC1C2(CC3N4C(=O)C5(CO)SSC4(CC31O)C(=O)N5C)OC(C)C(C)(C)C2=O (stereo not given)	0.528	3.86	2.6	0.722	0.0345	0.208	2.95	0.0136	3.27	0.651	0.234	1.88	1.16	0.253	< 0.0114	0.0578	0.896	< 0.01	1.73	0.224
COc1ccccc1-c1c(C)nn2c(NCc3ccccn3)cc(C)nc12	> 50	> 50	> 50	> 50	> 50	> 50	> 50	> 50	> 50	> 50	36.4	12.4	> 46.6	24.7	2.32	> 50	34.8	14.9	> 25.6	11.2

From PubChem BioAssay (NCI)
